# Results: patent publication US8334301B2, “5-Membered heterocyclic compound” (Takeda Pharmaceutical Company Limited, priority 2007, dated 2012)
# Where a name gives a salt, the structure may show the parent alone.
# Biological target: T1, H+,K+-ATPase (Sus scrofa, UniProt P19156)
# T1 construct: a microsomal fraction of gastric mucosa was prepared from the stomach of swine; from tissue; host or cells: swine stomach, gastric mucosa microsomal fraction
# Experiment: Proton Potassium-Adenosine Triphosphatase (H+,K+-ATPase) inhibitory activity test
# Type: biochemical
# Details: microsomal fraction of swine gastric mucosa; pH 6.5, 37° C., 10 mmol/L potassium chloride; malachite green colorimetry at 610 nm
# Description: Proton Potassium-Adenosine Triphosphatase (H^+,K^+-ATPase) Inhibitory Activity Test
# According to the method of Wallmark et al. [Biochim. Biophys. Acta, 728, 31 (1983)], a microsomal fraction of gastric mucosa was prepared from the stomach of swine. First, the stomach was removed, washed with tap water, and immersed in 3 mol/L sodium chloride, and the surface of the mucosa was wiped with a paper towel. The gastric mucosa was removed, minced, and homogenized in a 0.25 mol/L sucrose solution (pH 6.8) containing 1 mmol/L EDTA and 10 mmol/L tris-hydrochloric acid using polytron (Kinematica). The obtained homogenate was centrifuged at 20,000×g for 30 min and the supernatant was centrifuged at 100,000×g for 90 min. The precipitate was suspended in 0.25 mol/L sucrose solution, the suspension was superimposed on a 0.25 mol/L sucrose solution containing 7.5% Ficoll, and centrifuged at 100,000×g for 5 hr. The fraction containing the interface between the both layers was recovered, and centrifugally washed with 0.25 mol/L sucrose solution.
# The obtained microsomal fraction was used as an H^+/K^+-ATPase preparation.
# To 50 mmol/L HEPES-tris buffer (5 mmol/L magnesium chloride, 10 mmol/L potassium chloride, 10 μmol/L valinomycin, pH=6.5, 40 μL) containing 2.5 μg/mL enzyme preparation based on the protein concentration was added a test compound (5 μL) dissolved in 10% dimethyl sulfoxide solution, and the mixture was incubated at 37° C. for 30 min. A 2 mmol/L adenosine triphosphate tris salt solution (50 mmol/L HEPES-tris buffer (5 mmol/L magnesium chloride, pH 6.5), 5 μL) was added to start an enzyme reaction. The enzyme reaction was performed at 37° C. for 20 min, and then a malachite green solution (a mixture of 0.12% malachite green sulfate (2.5 mol/L) solution, 7.5% ammonium molybdate and 11% Tween 20 at a ratio of 100:25:2, 15 μL) was added to stop the reaction. The reaction mixture was stood at room temperature for 15 min, and the resulting reaction product of inorganic phosphorus and malachite green was measured by colorimetric quantification at a wavelength of 610 nm. In addition, the amount of inorganic phosphoric acid in a reaction solution free of potassium chloride was also measured in the same manner, and the value was extracted from that in the presence of potassium chloride, whereby the H^+,K^+-ATPase activity was measured. The inhibitory rate (%) was determined from the activity value of the control and that at each concentration of the test compound, and 50% inhibitory concentration (IC50) to H^+,K^+-ATPase was determined.
# T1 sequence (P19156 2-1034 limits assumed): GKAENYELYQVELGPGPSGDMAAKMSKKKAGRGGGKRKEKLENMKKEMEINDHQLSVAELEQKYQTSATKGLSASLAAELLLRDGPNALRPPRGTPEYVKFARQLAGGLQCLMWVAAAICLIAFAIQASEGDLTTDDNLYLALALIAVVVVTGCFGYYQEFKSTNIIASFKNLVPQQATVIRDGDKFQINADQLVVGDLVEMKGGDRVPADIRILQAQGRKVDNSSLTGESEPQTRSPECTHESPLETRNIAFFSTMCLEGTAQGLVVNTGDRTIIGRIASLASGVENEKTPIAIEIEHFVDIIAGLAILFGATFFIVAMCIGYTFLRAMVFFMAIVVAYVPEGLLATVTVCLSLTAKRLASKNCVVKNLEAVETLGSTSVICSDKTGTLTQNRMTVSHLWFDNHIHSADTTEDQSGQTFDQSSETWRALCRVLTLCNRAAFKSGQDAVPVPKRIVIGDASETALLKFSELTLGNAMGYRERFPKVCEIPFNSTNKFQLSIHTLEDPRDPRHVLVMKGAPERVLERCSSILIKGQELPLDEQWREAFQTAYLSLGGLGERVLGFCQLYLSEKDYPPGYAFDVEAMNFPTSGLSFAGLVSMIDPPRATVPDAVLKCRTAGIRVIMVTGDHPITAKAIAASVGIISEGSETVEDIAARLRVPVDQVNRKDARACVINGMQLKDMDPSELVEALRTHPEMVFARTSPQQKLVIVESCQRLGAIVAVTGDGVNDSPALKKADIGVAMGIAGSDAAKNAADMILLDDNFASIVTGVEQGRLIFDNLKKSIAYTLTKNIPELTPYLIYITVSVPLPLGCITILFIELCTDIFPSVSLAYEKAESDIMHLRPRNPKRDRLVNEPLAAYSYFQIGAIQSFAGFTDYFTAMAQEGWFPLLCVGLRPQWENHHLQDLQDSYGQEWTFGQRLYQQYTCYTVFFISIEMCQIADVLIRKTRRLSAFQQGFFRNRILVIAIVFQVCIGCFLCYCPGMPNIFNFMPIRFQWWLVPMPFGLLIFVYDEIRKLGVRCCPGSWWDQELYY
# T1 sequence (P18434 whole entry partner): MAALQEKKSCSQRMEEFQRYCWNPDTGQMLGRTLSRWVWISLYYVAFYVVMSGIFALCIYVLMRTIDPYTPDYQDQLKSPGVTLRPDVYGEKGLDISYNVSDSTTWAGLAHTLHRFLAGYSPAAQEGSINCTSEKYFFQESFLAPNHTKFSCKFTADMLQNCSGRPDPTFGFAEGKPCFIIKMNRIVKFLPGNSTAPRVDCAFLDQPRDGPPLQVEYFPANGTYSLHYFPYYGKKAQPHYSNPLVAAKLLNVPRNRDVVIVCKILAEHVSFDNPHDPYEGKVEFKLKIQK
row,SMILES,IC50
1,"CNCc1cc(-c2ccccc2F)c(Sc2cccc(OC)c2)s1 [Example 10, 1-{4-(2-fluorophenyl)-5-[(3-methoxyphenyl)thio]-2-thienyl}-N-methylmethanamine fumarate]",170 nM
2,"CNCc1cn(Cc2ccc(F)cc2)c(-c2ccccc2)n1 [Example 3, 1-[1-(4-fluorobenzyl)-2-phenyl-1H-imidazol-4-yl]-N-methylmethanamine dihydrochloride]",309000 nM
3,"CNCc1cc(Sc2ccc(Cl)nc2)n(-c2ccccc2Cl)n1 [Example 27, 1-{1-(2-chlorophenyl)-5-[(6-chloropyridin-3-yl)thio]-1H-pyrazol-3-yl}-N-methylmethanamine hydrochloride]",31 nM
4,"CNCc1nc(-c2ccccc2)n(Cc2ccc(F)cc2)c1Cl [Example 6, 1-[5-chloro-1-(4-fluorobenzyl)-2-phenyl-1H-imidazol-4-yl]-N-methylmethanamine oxalate]",1400 nM
5,"CNCc1cc(-c2ccccc2F)c([S+]([O-])c2cccc(OC)c2)s1 (stereo not shown) [Example 11, 1-{4-(2-fluorophenyl)-5-[(3-methoxyphenyl)sulfinyl]-2-thienyl}-N-methylmethanamine fumarate]",400 nM
6,"CNCc1cc(-c2cccnc2F)c(Sc2nccs2)s1 [Example 18, 1-{4-(2-fluoropyridin-3-yl)-5-[(1,3-thiazol-2-yl)thio]thiophen-2-yl}-N-methylmethanamine fumarate]",2200 nM
7,"CNCc1cc(-c2cccnc2F)c(Sc2ccoc2C)s1 [Example 19, 1-{4-(2-fluoropyridin-3-yl)-5-[(2-methylfuran-3-yl)thio]thiophen-2-yl}-N-methylmethanamine hydrochloride]",220 nM
